Test results published in PubChem BioAssay (NCI).
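Compound exposure: 48 hours, 5 concentrations, 96-well plates. Here, GI50 denotes the concentration required for 50% inhibition of growth. TGI denotes the concentration required for complete inhibition of growth.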

Key:
Experiment in all cases: NCI tumour cell line growth inhibition, 48 h
K-562 leukemia = system: K-562 leukemia
LOX IMVI melanoma = system: LOX IMVI melanoma
NCI-H460 lung = system: NCI-H460 lung
OVCAR-8 ovarian = system: OVCAR-8 ovarian
HOP-62 NSCLC = system: HOP-62 NSCLC
MALME-3M melanoma = system: MALME-3M melanoma
CAKI-1 renal = system: CAKI-1 renal
COLO 205 colon = system: COLO 205 colon
SNB-75 CNS = system: SNB-75 CNS
U251 CNS = system: U251 CNS
NCI/ADR-RES ovarian = system: NCI/ADR-RES ovarian
SF-295 CNS = system: SF-295 CNS
SF-268 CNS = system: SF-268 CNS
SK-MEL-2 melanoma = system: SK-MEL-2 melanoma
SF-539 CNS = system: SF-539 CNS
T-47D breast = system: T-47D breast
OVCAR-3 ovarian = system: OVCAR-3 ovarian
SR leukemia = system: SR leukemia
HCT-116 colon = system: HCT-116 colon
NCI-H522 lung = system: NCI-H522 lung
HOP-92 NSCLC = system: HOP-92 NSCLC
RPMI-8226 leukemia = system: RPMI-8226 leukemia
DU-145 prostate = system: DU-145 prostate
A498 renal = system: A498 renal

Cc1nc2ccccc2c(/C=C/c2ccc(Cl)cc2)c1C(=O)/C=C/c1ccc(F)cc1
GI50 (K-562 leukemia): 1200 nM | TGI (K-562 leukemia): > 100000 nM | GI50 (LOX IMVI melanoma): 1320 nM | TGI (LOX IMVI melanoma): 2610 nM | GI50 (NCI-H460 lung): 1390 nM | TGI (NCI-H460 lung): 2850 nM | GI50 (OVCAR-8 ovarian): 1620 nM | TGI (OVCAR-8 ovarian): 4160 nM | GI50 (HOP-62 NSCLC): 1890 nM | TGI (HOP-62 NSCLC): 3710 nM | GI50 (MALME-3M melanoma): 1640 nM | TGI (MALME-3M melanoma): 3010 nM | GI50 (CAKI-1 renal): 1110 nM | TGI (CAKI-1 renal): 2310 nM | GI50 (COLO 205 colon): 2080 nM | TGI (COLO 205 colon): 4910 nM | GI50 (SNB-75 CNS): 1160 nM | TGI (SNB-75 CNS): 2370 nM | GI50 (U251 CNS): 1440 nM | TGI (U251 CNS): 2920 nM | GI50 (NCI/ADR-RES ovarian): 1850 nM | TGI (NCI/ADR-RES ovarian): 4110 nM | GI50 (SF-295 CNS): 1750 nM | TGI (SF-295 CNS): 3220 nM | GI50 (SF-268 CNS): 1520 nM | TGI (SF-268 CNS): 3040 nM | GI50 (SK-MEL-2 melanoma): 1870 nM | TGI (SK-MEL-2 melanoma): 3790 nM | GI50 (SF-539 CNS): 1760 nM | TGI (SF-539 CNS): 3250 nM | GI50 (T-47D breast): 1100 nM | TGI (T-47D breast): 2860 nM | GI50 (OVCAR-3 ovarian): 1460 nM | TGI (OVCAR-3 ovarian): 2800 nM | GI50 (SR leukemia): 704 nM | TGI (SR leukemia): 5470 nM | GI50 (HCT-116 colon): 531 nM | TGI (HCT-116 colon): 2140 nM | GI50 (NCI-H522 lung): 1440 nM | TGI (NCI-H522 lung): 4040 nM | GI50 (HOP-92 NSCLC): 1190 nM | TGI (HOP-92 NSCLC): 2890 nM | GI50 (RPMI-8226 leukemia): 1370 nM | TGI (RPMI-8226 leukemia): 4480 nM | GI50 (DU-145 prostate): 1680 nM | TGI (DU-145 prostate): 3650 nM | GI50 (A498 renal): 1790 nM | TGI (A498 renal): 3220 nM
